Test results: patent US20120122791A1, “SUBSTRATE FOR CARTILAGE CULTIVATION USING ARTIFICIAL COLLAGEN, AND METHOD FOR CARTILAGE REGENERATION TREATMENT USING THE SUBSTRATE” (JNC CORPORATION, priority 2009, published 2012)

Key:
aggrecan mRNA = assay: Aggrecan mRNA amount in cartilage cells by addition of artificial collagen aqueous solution (real-time PCR); format: cell-based, New Zealand white rabbits; conditions: relative to 0% defined as 1
Description: (§1) Shoulder joints and knee joints were extirpated from 5 New Zealand white rabbits (male, 8- to 9 week-old), and only a cartilage layer was excised and sampled with a surgical knife. After washing with a sterilized PBS solution, pronase was added to 25 ml of Dulbecco's Modified Eagle's medium+gentacin (25 μg/ml) at a concentration of 0.4% (W/V), and incubation was performed at 37° C. for 2 hours. The solution was supplemented with collagenase at a concentration of 0.025% (W/V), and incubated at 37° C. overnight. The resulting solution was washed to collect cartilage cells. After that, the cartilage cells were seeded into a dish with a diameter of 90 mm at 1 to 2×10^6 cells/dish, and a medium exchange was performed once every 3 days. At the time point where the cells became confluent, subcultivation was performed only once. The following experiments were performed by using cells which had been subcultivated once. Further, the composition of a cultivation medium is as described below.
(§2) Cartilage cells in a semi-confluent state were detached from a dish by a tripsin-EDTA solution treatment, supplemented with a cultivation medium, and then washed by centrifugation. After that, the cells were seeded into a 12-well plate at 3×10^5 cells/well, and cultivation was started under conditions of 37° C. and 5% CO2.
(§3) At 24 hours after the start of the cultivation, a 1% (W/V) artificial collagen aqueous solution was diluted with a cultivation medium to prepare 0.10, 0.20, 0.30, 0.40, and 0.50% (W/V) artificial collagen aqueous solutions. Then, cultivation was performed for 4, 7, 14, and 21 days. It should be noted that a 0% (W/V) artificial collagen aqueous solution was used as a control.
(§4) After the completion of the above-mentioned cultivation, the cartilage cells were collected, and RNA extraction was performed by using RNeasy (registered trademark) Mini Kit (QIAGEN). A reverse transcription reaction was performed by using QuantiTect (registered trademark) Reverse Transcription Kit (QIAGEN). To be more specific, Real-time PCR was performed by the following method.
(§5) The model used for Real-time PCR was ABI PRISM 7000 (Applied Biosystems), and the reagents used were Real-time PCR Master Mix (TOYOBO) and Pre-Developed TaqMan & reg; Assay Reagents Eukaryotic 18S rRNA (Applied Biosystems), TaqMan & reg; Probe kit (Applied Biosystems).
(§6) At 50° C. for 2 minutes, at 95° C. for 10 minutes (at 95° C. for 15 seconds, at 60° C. for 1 minute)×40 cycles.

cartilage cells = assay: Proteoglycan production ability of cartilage cells (Na2 35SO4 incorporation) by addition of artificial collagen aqueous solution; format: cell-based, New Zealand white rabbits; conditions: 7 days, vs 0% control
Description: as §1
Cartilage cells in a semi-confluent state were detached from a dish by a tripsin-EDTA solution treatment, supplemented with a cultivation medium, and washed by centrifugation. After that, the cells were seeded into a 6-well plate at 1.5×10^6 cells/well and cultivated under conditions of 37° C. and 5% CO2.
At 24 hours after the start of the cultivation, a 1% (W/V) artificial collagen aqueous solution was diluted with a cultivation medium to prepare 0.10, 0.20, 0.30, 0.40, and 0.50% (W/V) artificial collagen aqueous solutions. The artificial collagen aqueous solutions were allowed to act on the cells for an additional 7 days, and further supplemented with 10 μCi/ml Na2^35SO4 to perform cultivation for the last 24 hours. A medium exchange was performed once every 3 days. It should be noted that a 0% (W/V) artificial collagen aqueous solution was used as a control.
After the completion of the above-mentioned cultivation, the cells were washed with a fresh cultivation medium, and a lysis buffer (4 M GuHCl, 0.05 M NaAC, pH 6.0) supplemented with protease inhibitors (0.1 M 6-aminohexanoic acid, 0.005 M benzamidine hydrochloride, 0.01 M Nae EDTA, 0.01 M N-ethylmaleimide, and 0.001 M phenylmethyl sulfonyl fluoride) was added into each well. The cells were extracted at 4° C. for 4 hours, and centrifuged at 15000 rpm at 4° C. for 20 minutes.
The cells were eluted with an elution buffer (4 M GuHCl, 0.05 M Na acetate, 0.1 M Na sulfate, and 0.5% Triton X-10 (pH 7.5)) by using a PD-10 pre-packed column (GE Healthcare Bio-Sciences Ltd.) to fractionate samples. To each of the fractionated samples, ethanol and a scintillator were added and mixed, and the radioactivity content (cpm) was measured with a liquid scintillation counter. Further, the DNA amount of each of the samples used in this case was measured with a Hoechst 33258 dye to determine a DNA value expressed as cpm/mg.

cartilage defect model = assay: Cartilage regeneration by intraarticular administration in cartilage defect model (modified ICRS score, Safranin-0 staining, type 2 collagen immunostaining); format: in vivo, New Zealand white domestic rabbits; conditions: for macroscopic observation of knee joints: collected Week 7; for Safranin-0-stained area ratio compared to control group / Safranin-0 stained area compared to control group / type 2 collagen antibody-immunostained area compared to control group / type 2 collagen antibody-immunostained area ratio compared to control group: intraarticular
Description: A cartilage defect with a diameter of 5 mm was made on the patellofemoral joint of each of 18 knees of 9 New Zealand white domestic rabbits (22 week-old, 3.4 to 3.8 kg) after anesthesia, and further, a wound was sutured to prepare a cartilage defect model (Week 0). The 18 knees were divided into 3 groups, and on Week 1, Week 3, and Week 5, physiological saline was administered for a control group, and an intraarticular injection (0.1 ml/kg) was performed for an artificial collagen aqueous solution administration group. After that, knee joints were collected on Week 7. The ICRS score in Table 4 below is an evaluation method generally used when cartilage grafting to a cartilage defect is performed. The inventors of the present invention adopted, as an evaluation method in the case of administering a medicament without performing cartilage grafting, a modified ICRS score, which is an evaluation method involving using two items of “Degree of defect repair” and “Macroscopic appearance” and performing evaluation with a total score of 0 to 8. […] As recognized from the result of modified ICRS score described in FIG. 12, cartilage regeneration could be achieved by the intraarticular administration of the artificial collagen aqueous solution as the substrate for cartilage cultivation of the present invention. It should be noted that the results with a modified ICRS score are expressed as an average of scores of 6 knees for the control group, an average of 6 knees for the 0.1% (W/V) group, and an average of 6 knees for the 0.5% (W/V) group. In addition, a Mann-Whitney U test was used for statistics. […] The stained areas of the 0.1% (W/V) artificial collagen administration group and the 0.5% (W/V) artificial collagen administration group were larger compared to the stained area of the control group. In particular, a proteoglycan was present in a large amount. In addition, the stained area ratios of the 0.1% (W/V) artificial collagen administration group and the 0.5% (W/V) artificial collagen administration group were larger compared to the stained area ratio of the control group. […] The stained areas of the 0.1% (W/V) artificial collagen administration group and the 0.5% (W/V) artificial collagen administration group were larger compared to the stained area of the control group. In addition, the stained area ratios of the 0.1% (W/V) artificial collagen administration group and the 0.5% (W/V) artificial collagen administration group were larger compared to the stained area ratio of the control group.

type 2 collagen mRNA = assay: Type 2 collagen mRNA amount in cartilage cells by addition of artificial collagen aqueous solution (real-time PCR); format: cell-based, New Zealand white rabbits; conditions: relative to 0% defined as 1
Description: as §1, §2, §3, §4, §5, §6

“Poly(Tripeptide-6) [artificial collagen aqueous solution]” was tested, and the “aggrecan mRNA amount” value (aggrecan mRNA; Day 4, the respective concentrations (0.10 to 0.50% (W/V))) was “no significant change”, the “aggrecan mRNA amount” value (aggrecan mRNA; Day 7, the respective concentrations (0.10 to 0.50% (W/V))) was “no significant change” and the “aggrecan mRNA amount” value (aggrecan mRNA; Day 21, 0.20% (W/V)) was “significantly lowered”. The “aggrecan mRNA amount” value (aggrecan mRNA; Day 21, 0.30% (W/V)) was “significantly lowered”, the “aggrecan mRNA amount” value (aggrecan mRNA; Day 21, 0.40% (W/V)) was “significantly lowered” and the “aggrecan mRNA amount” value (aggrecan mRNA; Day 21, 0.50% (W/V)) was “significantly lowered”. The proteoglycan production (cartilage cells; 0.10% (W/V)) was “significantly enhanced”, the proteoglycan production (cartilage cells; 0.20% (W/V)) was “significantly enhanced” and the proteoglycan production (cartilage cells; 0.30% (W/V)) was “significantly enhanced”. For the same substance, the proteoglycan production (cartilage cells; 0.40% (W/V)) was “significantly enhanced”, the proteoglycan production (cartilage cells; 0.50% (W/V)) was “significantly enhanced” and the “modified ICRS score vs control group” value (cartilage defect model; 0.1% (W/V), intraarticular 0.1 ml/kg on Week 1, 3, 5, Week 7, Mann-Whitney U test) was “significant difference”. The “macroscopic observation of knee joints” value (cartilage defect model; 0.1% (W/V), intraarticular 0.1 ml/kg on Week 1, 3, 5) was “many knee joints have smooth surfaces”, the “Safranin-0-stained area ratio compared to control group” value (cartilage defect model; 0.1% (W/V), Week 7) was “larger” and the “Safranin-0 stained area compared to control group” value (cartilage defect model; 0.1% (W/V), Week 7) was “larger”. For the same substance, the “type 2 collagen antibody-immunostained area compared to control group” value (cartilage defect model; 0.1% (W/V), Week 7) was “larger”, the “type 2 collagen antibody-immunostained area ratio compared to control group” value (cartilage defect model; 0.1% (W/V), Week 7) was “larger” and the “macroscopic observation of knee joints” value (cartilage defect model; 0.5% (W/V), intraarticular 0.1 ml/kg on Week 1, 3, 5) was “many sparse fissures”. The “Safranin-0-stained area ratio compared to control group” value (cartilage defect model; 0.5% (W/V), Week 7) was “larger”, the “Safranin-0 stained area compared to control group” value (cartilage defect model; 0.5% (W/V), Week 7) was “larger” and the “type 2 collagen antibody-immunostained area compared to control group” value (cartilage defect model; 0.5% (W/V), Week 7) was “larger”. The “type 2 collagen antibody-immunostained area ratio compared to control group” value (cartilage defect model; 0.5% (W/V), Week 7) was “larger”, the “type 2 collagen mRNA expression” value (type 2 collagen mRNA; Day 4, 0.10% (W/V)) was “significantly enhanced” and the “type 2 collagen mRNA expression” value (type 2 collagen mRNA; Day 7, 0.40% (W/V)) was “lowered”. The “type 2 collagen mRNA expression” value (type 2 collagen mRNA; Day 7, 0.50% (W/V)) was “lowered”, the “type 2 collagen mRNA expression” value (type 2 collagen mRNA; Day 21, 0.40% (W/V)) was “lowered” and the “type 2 collagen mRNA expression” value (type 2 collagen mRNA; Day 21, 0.50% (W/V)) was “lowered”.
